Legend:
Assay in all cases: KINOMEscan competition binding
Settings in all cases: compound 10.0 µM
MARK1 (human) = MARK1 (human) (UniProt Q9P0L2)
INSRR (human) = INSRR (human) (UniProt P14616)
GSK3A (human) = GSK3A (human) (UniProt P49840)
CAMKK1 (human) = CAMKK1 (human) (UniProt Q8N5S9)
CSNK1A1L (human) = CSNK1A1L (human) (UniProt Q8N752)
MAP4K2 (human) = MAP4K2 (human) (UniProt Q12851)
SLK (human) = SLK (human) (UniProt Q9H2G2)
STK16 (human) = STK16 (human) (UniProt O75716)
SYK (human) = SYK (human) (UniProt P43405)
CLK3 (human) = CLK3 (human) (UniProt P49761)
IKBKE (human) = IKBKE (human) (UniProt Q14164)
NEK6 (human) = NEK6 (human) (UniProt Q9HC98)
MST1R (human) = MST1R (human) (UniProt Q04912)
STK25 (human) = STK25 (human) (UniProt O00506)
ROS1 (human) = ROS1 (human) (UniProt P08922)
ZAP70 (human) = ZAP70 (human) (UniProt P43403)
MARK4 (human) = MARK4 (human) (UniProt Q96L34)
CAMK2D (human) = CAMK2D (human) (UniProt Q13557)
STK38L (human) = STK38L (human) (UniProt Q9Y2H1)
SIK2 (human) = SIK2 (human) (UniProt Q9H0K1)
NEK9 (human) = NEK9 (human) (UniProt Q8TD19)
[1] = biological target: JAK3 JH1 catalytic (human) (UniProt P52333)
PRKACB (human) = PRKACB (human) (UniProt P22694)
CDC42BPA (human) = CDC42BPA (human) (UniProt Q5VT25)
CDK16 (human) = CDK16 (human) (UniProt Q00536)
MARK2 (human) = MARK2 (human) (UniProt Q7KZI7)
EPHA3 (human) = EPHA3 (human) (UniProt P29320)
MYO3A (human) = MYO3A (human) (UniProt Q8NEV4)
MAPK3 (human) = MAPK3 (human) (UniProt P27361)
TGFBR2 (human) = TGFBR2 (human) (UniProt P37173)
CDK9 (human) = CDK9 (human) (UniProt P50750)
SRPK2 (human) = SRPK2 (human) (UniProt P78362)
PRKX (human) = PRKX (human) (UniProt P51817)
ALK (human) = ALK (human) (UniProt Q9UM73)
AXL (human) = AXL (human) (UniProt P30530)
LATS2 (human) = LATS2 (human) (UniProt Q9NRM7)
[2] = biological target: JAK1 JH2 pseudokinase (human) (UniProt P23458)
CLK1 (human) = CLK1 (human) (UniProt P49759)
PRKAA1 (human) = PRKAA1 (human) (UniProt Q13131)
RPS6KA1 KD1 (human) = RPS6KA1 KD1 (human) (UniProt Q15418)

Chain of CAMK2D (human) (Q13557 whole entry, looked up): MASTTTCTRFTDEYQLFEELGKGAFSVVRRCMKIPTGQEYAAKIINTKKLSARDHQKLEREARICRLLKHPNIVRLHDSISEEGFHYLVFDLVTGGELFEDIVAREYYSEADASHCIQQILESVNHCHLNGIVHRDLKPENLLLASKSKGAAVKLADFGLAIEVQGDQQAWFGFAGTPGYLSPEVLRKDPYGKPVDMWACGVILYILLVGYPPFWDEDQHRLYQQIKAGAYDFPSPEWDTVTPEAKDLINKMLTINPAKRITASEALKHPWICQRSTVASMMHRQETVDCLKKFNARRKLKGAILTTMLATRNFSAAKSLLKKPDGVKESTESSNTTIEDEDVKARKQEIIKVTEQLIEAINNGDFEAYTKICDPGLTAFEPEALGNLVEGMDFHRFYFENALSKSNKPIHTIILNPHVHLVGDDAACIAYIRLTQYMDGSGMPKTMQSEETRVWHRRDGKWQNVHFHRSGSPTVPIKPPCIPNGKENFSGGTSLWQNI
Chain of CDK16 (human) (Q00536 whole entry, looked up): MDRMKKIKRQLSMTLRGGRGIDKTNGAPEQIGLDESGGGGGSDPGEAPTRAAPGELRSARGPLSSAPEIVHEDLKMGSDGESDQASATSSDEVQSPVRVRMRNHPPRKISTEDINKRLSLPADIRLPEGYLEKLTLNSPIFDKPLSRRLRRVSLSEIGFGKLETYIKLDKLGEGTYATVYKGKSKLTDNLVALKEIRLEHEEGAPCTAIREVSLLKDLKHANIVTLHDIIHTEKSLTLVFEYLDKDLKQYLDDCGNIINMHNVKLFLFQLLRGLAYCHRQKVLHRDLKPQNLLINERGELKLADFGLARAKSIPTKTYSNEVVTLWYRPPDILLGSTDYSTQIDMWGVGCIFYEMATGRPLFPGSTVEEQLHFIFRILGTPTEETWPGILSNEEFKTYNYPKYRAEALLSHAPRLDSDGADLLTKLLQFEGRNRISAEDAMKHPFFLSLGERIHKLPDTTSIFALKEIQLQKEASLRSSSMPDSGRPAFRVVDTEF
Chain of PRKX (human) (P51817 whole entry, looked up): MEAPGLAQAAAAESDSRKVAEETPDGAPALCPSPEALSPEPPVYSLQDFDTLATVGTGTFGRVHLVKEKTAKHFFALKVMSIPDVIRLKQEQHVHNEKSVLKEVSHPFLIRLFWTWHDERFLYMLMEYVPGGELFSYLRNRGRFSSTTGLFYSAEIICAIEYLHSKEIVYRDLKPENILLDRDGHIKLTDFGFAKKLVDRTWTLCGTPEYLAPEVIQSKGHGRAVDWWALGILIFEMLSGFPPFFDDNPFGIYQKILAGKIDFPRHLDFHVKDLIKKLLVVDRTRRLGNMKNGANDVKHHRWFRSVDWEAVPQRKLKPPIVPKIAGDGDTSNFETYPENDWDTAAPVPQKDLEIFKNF
Chain of SLK (human) (Q9H2G2 whole entry, looked up): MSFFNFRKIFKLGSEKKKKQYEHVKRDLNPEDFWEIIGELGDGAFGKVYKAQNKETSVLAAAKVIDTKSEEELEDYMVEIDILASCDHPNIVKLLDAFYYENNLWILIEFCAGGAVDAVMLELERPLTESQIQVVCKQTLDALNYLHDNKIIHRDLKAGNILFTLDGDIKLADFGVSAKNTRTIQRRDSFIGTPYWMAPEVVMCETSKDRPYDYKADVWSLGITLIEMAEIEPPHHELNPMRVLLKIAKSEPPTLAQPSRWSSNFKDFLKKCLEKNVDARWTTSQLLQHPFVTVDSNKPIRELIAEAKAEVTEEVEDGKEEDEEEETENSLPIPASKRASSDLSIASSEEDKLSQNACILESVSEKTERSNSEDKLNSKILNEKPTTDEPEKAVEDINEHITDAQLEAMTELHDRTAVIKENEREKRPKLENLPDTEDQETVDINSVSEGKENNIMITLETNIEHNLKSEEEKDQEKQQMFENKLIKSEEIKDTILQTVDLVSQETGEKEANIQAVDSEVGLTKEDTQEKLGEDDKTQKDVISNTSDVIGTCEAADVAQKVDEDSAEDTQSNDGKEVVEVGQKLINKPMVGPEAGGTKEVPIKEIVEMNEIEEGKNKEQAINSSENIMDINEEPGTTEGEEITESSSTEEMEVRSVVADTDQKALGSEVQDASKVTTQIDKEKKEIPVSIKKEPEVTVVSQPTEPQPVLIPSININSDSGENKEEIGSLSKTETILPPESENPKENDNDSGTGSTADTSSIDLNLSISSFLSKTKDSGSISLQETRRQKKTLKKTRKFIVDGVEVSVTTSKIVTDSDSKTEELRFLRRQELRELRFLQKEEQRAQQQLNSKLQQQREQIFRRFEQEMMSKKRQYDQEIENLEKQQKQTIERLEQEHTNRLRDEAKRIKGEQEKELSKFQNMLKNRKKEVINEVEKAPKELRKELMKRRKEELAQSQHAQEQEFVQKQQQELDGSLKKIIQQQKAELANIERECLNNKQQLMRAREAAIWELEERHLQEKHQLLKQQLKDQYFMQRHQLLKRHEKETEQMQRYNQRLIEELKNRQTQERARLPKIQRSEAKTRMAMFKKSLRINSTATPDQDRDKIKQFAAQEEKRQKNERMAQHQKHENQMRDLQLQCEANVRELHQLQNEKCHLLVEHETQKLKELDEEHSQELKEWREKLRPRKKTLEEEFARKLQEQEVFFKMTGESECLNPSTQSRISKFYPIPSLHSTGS
Chain of ALK (human) (Q9UM73 whole entry, looked up): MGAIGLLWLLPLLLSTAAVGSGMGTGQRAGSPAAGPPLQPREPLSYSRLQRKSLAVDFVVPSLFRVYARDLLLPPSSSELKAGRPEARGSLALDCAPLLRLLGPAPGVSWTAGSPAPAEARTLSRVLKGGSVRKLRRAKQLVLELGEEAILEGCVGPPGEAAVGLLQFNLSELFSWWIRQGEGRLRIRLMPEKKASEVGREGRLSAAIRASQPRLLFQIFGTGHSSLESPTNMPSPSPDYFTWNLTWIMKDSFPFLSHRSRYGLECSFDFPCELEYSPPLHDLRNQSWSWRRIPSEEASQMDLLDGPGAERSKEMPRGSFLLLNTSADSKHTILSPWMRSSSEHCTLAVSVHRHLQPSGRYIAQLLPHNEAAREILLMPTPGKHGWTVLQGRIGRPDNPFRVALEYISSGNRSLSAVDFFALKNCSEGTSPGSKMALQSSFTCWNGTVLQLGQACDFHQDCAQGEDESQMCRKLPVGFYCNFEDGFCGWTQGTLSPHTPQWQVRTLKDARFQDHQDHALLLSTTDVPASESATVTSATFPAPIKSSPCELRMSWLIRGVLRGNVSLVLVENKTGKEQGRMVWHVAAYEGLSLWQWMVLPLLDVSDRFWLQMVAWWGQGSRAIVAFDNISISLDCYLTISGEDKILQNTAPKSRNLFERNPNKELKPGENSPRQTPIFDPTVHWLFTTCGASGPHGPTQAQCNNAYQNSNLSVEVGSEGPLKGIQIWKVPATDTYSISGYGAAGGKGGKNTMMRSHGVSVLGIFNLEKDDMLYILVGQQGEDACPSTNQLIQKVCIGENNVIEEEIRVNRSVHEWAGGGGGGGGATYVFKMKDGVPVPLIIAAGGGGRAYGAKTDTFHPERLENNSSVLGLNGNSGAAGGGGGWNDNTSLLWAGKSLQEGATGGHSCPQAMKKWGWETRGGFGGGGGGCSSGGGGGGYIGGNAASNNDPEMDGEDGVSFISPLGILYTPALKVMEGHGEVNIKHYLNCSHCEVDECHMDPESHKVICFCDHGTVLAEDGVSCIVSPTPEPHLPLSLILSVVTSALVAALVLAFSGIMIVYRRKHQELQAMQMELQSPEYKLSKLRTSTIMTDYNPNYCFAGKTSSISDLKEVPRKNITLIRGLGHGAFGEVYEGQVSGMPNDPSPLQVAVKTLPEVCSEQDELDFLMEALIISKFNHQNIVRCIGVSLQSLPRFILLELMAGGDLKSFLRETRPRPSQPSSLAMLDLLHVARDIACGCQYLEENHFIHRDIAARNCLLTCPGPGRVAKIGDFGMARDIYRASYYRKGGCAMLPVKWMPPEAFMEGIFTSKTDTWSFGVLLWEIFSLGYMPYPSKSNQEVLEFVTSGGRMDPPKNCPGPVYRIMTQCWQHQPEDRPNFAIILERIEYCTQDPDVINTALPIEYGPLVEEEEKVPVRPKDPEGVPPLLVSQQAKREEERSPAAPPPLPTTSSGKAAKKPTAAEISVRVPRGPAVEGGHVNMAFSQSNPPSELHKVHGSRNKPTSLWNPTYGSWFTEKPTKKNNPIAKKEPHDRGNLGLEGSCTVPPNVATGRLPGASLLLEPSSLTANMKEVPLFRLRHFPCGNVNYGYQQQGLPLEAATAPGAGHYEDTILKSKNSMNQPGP
Chain of CAMKK1 (human) (Q8N5S9 whole entry, looked up): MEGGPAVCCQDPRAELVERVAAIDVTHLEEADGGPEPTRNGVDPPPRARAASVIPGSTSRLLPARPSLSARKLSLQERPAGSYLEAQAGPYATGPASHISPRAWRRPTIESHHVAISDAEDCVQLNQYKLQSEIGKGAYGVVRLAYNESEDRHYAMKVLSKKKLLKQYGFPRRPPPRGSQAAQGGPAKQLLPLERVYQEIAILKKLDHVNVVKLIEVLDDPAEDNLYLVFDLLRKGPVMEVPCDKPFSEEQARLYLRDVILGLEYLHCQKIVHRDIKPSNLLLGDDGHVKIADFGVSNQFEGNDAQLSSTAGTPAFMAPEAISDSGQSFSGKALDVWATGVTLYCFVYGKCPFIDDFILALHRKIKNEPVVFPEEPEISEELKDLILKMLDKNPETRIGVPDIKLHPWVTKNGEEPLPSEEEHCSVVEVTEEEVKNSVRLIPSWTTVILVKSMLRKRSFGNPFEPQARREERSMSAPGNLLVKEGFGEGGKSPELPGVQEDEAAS
Chain of NEK6 (human) (Q9HC98 whole entry, looked up): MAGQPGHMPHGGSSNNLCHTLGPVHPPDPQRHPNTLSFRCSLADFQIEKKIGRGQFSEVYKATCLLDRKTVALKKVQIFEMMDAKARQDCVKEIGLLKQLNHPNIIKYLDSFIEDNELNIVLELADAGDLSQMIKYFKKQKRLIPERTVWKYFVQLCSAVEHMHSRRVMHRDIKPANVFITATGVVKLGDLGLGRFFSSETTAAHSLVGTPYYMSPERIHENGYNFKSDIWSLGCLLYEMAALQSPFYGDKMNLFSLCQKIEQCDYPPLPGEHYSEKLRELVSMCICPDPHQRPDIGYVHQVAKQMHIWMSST

Which results are given for `Cc1ccc(NC(=O)c2cccc(C(C)(C)C#N)c2)cc1Nc1ccc2ncn(C)c(=O)c2c1`?
kinase still bound, per cent of control (MARK1 (human)): 100%; kinase still bound, per cent of control (INSRR (human)): 100%; kinase still bound, per cent of control (GSK3A (human)): 100%; kinase still bound, per cent of control (CAMKK1 (human)): 34%; kinase still bound, per cent of control (CSNK1A1L (human)): 100%; kinase still bound, per cent of control (MAP4K2 (human)): 62%; kinase still bound, per cent of control (SLK (human)): 68%; kinase still bound, per cent of control (STK16 (human)): 83%; kinase still bound, per cent of control (SYK (human)): 100%; kinase still bound, per cent of control (CLK3 (human)): 100%; kinase still bound, per cent of control (IKBKE (human)): 100%; kinase still bound, per cent of control (NEK6 (human)): 100%; kinase still bound, per cent of control (MST1R (human)): 100%; kinase still bound, per cent of control (STK25 (human)): 100%; kinase still bound, per cent of control (ROS1 (human)): 100%; kinase still bound, per cent of control (ZAP70 (human)): 100%; kinase still bound, per cent of control (MARK4 (human)): 100%; kinase still bound, per cent of control (CAMK2D (human)): 100%; kinase still bound, per cent of control (STK38L (human)): 100%; kinase still bound, per cent of control (SIK2 (human)): 77%; kinase still bound, per cent of control (NEK9 (human)): 100%; kinase still bound, per cent of control [1]: 87%; kinase still bound, per cent of control (PRKACB (human)): 100%; kinase still bound, per cent of control (CDC42BPA (human)): 100%; kinase still bound, per cent of control (CDK16 (human)): 100%; kinase still bound, per cent of control (MARK2 (human)): 92%; kinase still bound, per cent of control (EPHA3 (human)): 5.1%; kinase still bound, per cent of control (MYO3A (human)): 100%; kinase still bound, per cent of control (MAPK3 (human)): 100%; kinase still bound, per cent of control (TGFBR2 (human)): 94%; kinase still bound, per cent of control (CDK9 (human)): 100%; kinase still bound, per cent of control (SRPK2 (human)): 100%; kinase still bound, per cent of control (PRKX (human)): 100%; kinase still bound, per cent of control (ALK (human)): 93%; kinase still bound, per cent of control (AXL (human)): 75%; kinase still bound, per cent of control (LATS2 (human)): 99%; kinase still bound, per cent of control [2]: 82%; kinase still bound, per cent of control (CLK1 (human)): 100%; kinase still bound, per cent of control (PRKAA1 (human)): 73%; kinase still bound, per cent of control (RPS6KA1 KD1 (human)): 85%

Which results are given for `COc1cc(C(=O)NC2CCN(C)CC2)ccc1Nc1ncc2c(n1)N(C1CCCC1)CCC(=O)N2C(C)C`?
kinase still bound, per cent of control (MARK1 (human)): 100%; kinase still bound, per cent of control (INSRR (human)): 100%; kinase still bound, per cent of control (GSK3A (human)): 100%; kinase still bound, per cent of control (CAMKK1 (human)): 100%; kinase still bound, per cent of control (CSNK1A1L (human)): 100%; kinase still bound, per cent of control (MAP4K2 (human)): 100%; kinase still bound, per cent of control (SLK (human)): 100%; kinase still bound, per cent of control (STK16 (human)): 100%; kinase still bound, per cent of control (SYK (human)): 100%; kinase still bound, per cent of control (CLK3 (human)): 100%; kinase still bound, per cent of control (IKBKE (human)): 100%; kinase still bound, per cent of control (NEK6 (human)): 100%; kinase still bound, per cent of control (MST1R (human)): 100%; kinase still bound, per cent of control (STK25 (human)): 100%; kinase still bound, per cent of control (ROS1 (human)): 100%; kinase still bound, per cent of control (ZAP70 (human)): 100%; kinase still bound, per cent of control (MARK4 (human)): 0%; kinase still bound, per cent of control (CAMK2D (human)): 100%; kinase still bound, per cent of control (STK38L (human)): 100%; kinase still bound, per cent of control (SIK2 (human)): 100%; kinase still bound, per cent of control (NEK9 (human)): 100%; kinase still bound, per cent of control [1]: 100%; kinase still bound, per cent of control (PRKACB (human)): 100%; kinase still bound, per cent of control (CDC42BPA (human)): 100%; kinase still bound, per cent of control (CDK16 (human)): 100%; kinase still bound, per cent of control (MARK2 (human)): 100%; kinase still bound, per cent of control (EPHA3 (human)): 100%; kinase still bound, per cent of control (MYO3A (human)): 100%; kinase still bound, per cent of control (MAPK3 (human)): 100%; kinase still bound, per cent of control (TGFBR2 (human)): 100%; kinase still bound, per cent of control (CDK9 (human)): 100%; kinase still bound, per cent of control (SRPK2 (human)): 100%; kinase still bound, per cent of control (PRKX (human)): 100%; kinase still bound, per cent of control (ALK (human)): 100%; kinase still bound, per cent of control (AXL (human)): 100%; kinase still bound, per cent of control (LATS2 (human)): 100%; kinase still bound, per cent of control [2]: 100%; kinase still bound, per cent of control (CLK1 (human)): 100%; kinase still bound, per cent of control (PRKAA1 (human)): 100%; kinase still bound, per cent of control (RPS6KA1 KD1 (human)): 100%

From the kinase profiling compilation of Christmann-Franck et al. (2016)
